Test [1] has as its target Glycogen synthase kinase-3 beta (Homo sapiens, UniProt P49841). Nature of the test: Inhibition of recombinant human GSK-3beta using YRRAAVPPSPSLSRHSSPHQ(pS)EDEE as substrate preincubated for 15 mins followed by substrate addition and measured after 60 mins by Kinase-Glo luminescent kinase assay. Background: In Kinase-Glo more light means more ATP remaining.
The test system of test [2] is PC-12. In words: Neuroprotective activity against H2O2-induced cytotoxicity in rat PC12 cells assessed as increase in cell viability at 10 uM preincubated for 12 hrs followed by replacement with fresh media and H2O2 stimulation for 12 hrs by MTT assay. In kind it is functional, cell-based.

SMILES strings stand for the structures. Activity calls are given as the source filed them. The calls are words filed in the database; no cut-off is given here.

Sequence of Glycogen synthase kinase-3 beta (P49841 whole entry): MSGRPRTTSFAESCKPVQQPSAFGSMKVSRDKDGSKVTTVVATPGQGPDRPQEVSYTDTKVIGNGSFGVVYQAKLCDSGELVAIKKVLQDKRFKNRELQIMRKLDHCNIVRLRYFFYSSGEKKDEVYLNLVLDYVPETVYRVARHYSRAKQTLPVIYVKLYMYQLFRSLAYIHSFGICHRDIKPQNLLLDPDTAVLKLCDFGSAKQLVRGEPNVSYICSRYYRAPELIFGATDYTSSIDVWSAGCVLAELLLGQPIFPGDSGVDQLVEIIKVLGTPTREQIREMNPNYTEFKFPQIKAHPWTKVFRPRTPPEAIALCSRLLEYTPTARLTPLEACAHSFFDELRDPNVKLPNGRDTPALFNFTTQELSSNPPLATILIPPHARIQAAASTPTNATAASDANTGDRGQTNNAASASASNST

Take `COc1ccc(-c2ocnc2C(=O)NCCCNC(=O)CCc2cc(C(C)(C)C)c(O)c(C(C)(C)C)c2)cc1I`: the IC50 in test [1] is more than 1 nM.
Same read-out and setting: the result for `COc1ccc(-c2ocnc2C(=O)NCCCNC(=O)CCc2cc(C(C)(C)C)c(O)c(C(C)(C)C)c2)cc1Cl` reads more than 1 nM; that for `COc1ccc(-c2ocnc2C(=O)NCCCn2cc(CNC(=O)c3cc(C(C)(C)C)c(O)c(C(C)(C)C)c3)nn2)cc1I`, 0.31 nM; that for `COc1ccc(-c2ocnc2C(=O)NCCCn2cc(CNC(=O)c3cc(C(C)(C)C)c(O)c(C(C)(C)C)c3)nn2)cc1Cl`, more than 1 nM.
For `COC(=O)[C@@]12OC[C@]34[C@H]([C@@H](O)[C@@H]1O)[C@@]1(C)CC(=O)C(O)=C(C)[C@@H]1C[C@H]3OC(=O)[C@H](OC(=O)C=C(C)C)[C@@H]24`, the outcome in test [2] was inactive.
Regarding `COc1ccc(-c2ocnc2C(=O)NCCCn2cc(CNC(=O)/C=C/c3cc(C(C)(C)C)c(O)c(C(C)(C)C)c3)nn2)cc1Cl`, in test [1], the IC50 came to 0.76 nM.
Consider `COc1ccc(-c2ocnc2C(=O)NCCCNC(=O)CCc2cc(C(C)(C)C)c(O)c(C(C)(C)C)c2)cc1F`, for which the IC50 in test [1] is more than 1 nM.
For the compound `COc1ccc(-c2ocnc2C(=O)NCCCCNC(=O)c2cc(C(C)(C)C)c(O)c(C(C)(C)C)c2)cc1F`, the outcome in test [2] was Active. For the same compound, the IC50 in test [1] was 0.62 nM.
In the same order, the values of `COc1ccc(-c2ocnc2C(=O)NCCCc2ccc(NC(=O)c3cc(C(C)(C)C)c(O)c(C(C)(C)C)c3)cc2)cc1Cl` are “Active” and 0.92 nM.
For `COc1ccc(-c2ocnc2C(=O)NCCCn2cc(CNC(=O)/C=C/c3cc(C(C)(C)C)c(O)c(C(C)(C)C)c3)nn2)cc1I`, the IC50 in test [1] came out at 0.33 nM.
On to `COc1c(F)cc(-c2ocnc2C(=O)NCCCc2ccc(NC(=O)/C=C/c3cc(C(C)(C)C)c(O)c(C(C)(C)C)c3)cc2)cc1F`, for which the result in test [2] was Active. The IC50 in test [1] came out at 0.95 nM.
As for `COc1ccc(-c2ocnc2C(=O)NCCCc2ccc(NC(=O)/C=C/c3cc(C(C)(C)C)c(O)c(C(C)(C)C)c3)cc2)cc1F`, the IC50 in test [1] was more than 1 nM.
On to `COc1c(F)cc(-c2ocnc2C(=O)NCCCNC(=O)CCc2cc(C(C)(C)C)c(O)c(C(C)(C)C)c2)cc1F`, for which the IC50 in test [1] is more than 1 nM.
On the same count and under the same terms, as for `COc1ccc(-c2ocnc2C(=O)NCCCc2ccc(NC(=O)CCc3cc(C(C)(C)C)c(O)c(C(C)(C)C)c3)cc2)cc1Cl`, the figure is more than 1 nM.
Same read-out and setting: as for `COc1ccc(-c2ocnc2C(=O)NCCCNC(=O)/C=C/c2cc(C(C)(C)C)c(O)c(C(C)(C)C)c2)cc1Cl`, the figure is 0.41 nM.
Same read-out and setting: the result for `COc1ccc(-c2ocnc2C(=O)NCCCn2cc(CNC(=O)CCc3cc(C(C)(C)C)c(O)c(C(C)(C)C)c3)nn2)cc1Cl` reads 0.27 nM; that for `COc1ccc(-c2ocnc2C(=O)NCCCNC(=O)c2cc(C(C)(C)C)c(O)c(C(C)(C)C)c2)cc1I`, 0.48 nM.
Take `COc1ccc(-c2ocnc2C(=O)NCCCn2cc(CNC(=O)CCc3cc(C(C)(C)C)c(O)c(C(C)(C)C)c3)nn2)cc1I`: the IC50 in test [1] was determined as 0.81 nM.
Same read-out and setting: the result for `COc1ccc(-c2ocnc2C(=O)NCCCNC(=O)/C=C/c2cc(C(C)(C)C)c(O)c(C(C)(C)C)c2)cc1I` reads more than 1 nM; that for `COc1ccc(-c2ocnc2C(=O)NCCCNC(=O)c2cc(C(C)(C)C)c(O)c(C(C)(C)C)c2)cc1Cl`, more than 1 nM; that for `COc1c(F)cc(-c2ocnc2C(=O)NCCCNC(=O)c2cc(C(C)(C)C)c(O)c(C(C)(C)C)c2)cc1F`, 0.96 nM.
Consider `COc1ccc(-c2ocnc2C(=O)NCCCCNC(=O)CCc2cc(C(C)(C)C)c(O)c(C(C)(C)C)c2)cc1Cl`, for which the result in test [2] was Active. For the same compound, the IC50 in test [1] amounted to 0.84 nM.
In the same order, the values of `COc1ccc(-c2ocnc2C(=O)NCCCCNC(=O)CCc2cc(C(C)(C)C)c(O)c(C(C)(C)C)c2)cc1F` are “Active” and 0.78 nM.
On the same counts, the results for `COc1ccc(-c2ocnc2C(=O)NCCCCNC(=O)c2cc(C(C)(C)C)c(O)c(C(C)(C)C)c2)cc1Cl` are “Active” and 0.81 nM.
For `COc1ccc(-c2ocnc2C(=O)NCCCNC(=O)c2cc(C(C)(C)C)c(O)c(C(C)(C)C)c2)cc1F`, in test [1], the IC50 is more than 1 nM.

For orientation: IC50 means the concentration at which inhibition is half-maximal.
